In the test the target is T1, HIV-1 protease (Human immunodeficiency virus type 1 group M subtype B, UniProt P04585).
T1 construct: Purified HIV-1 protease was obtained as described above; made in house; host or cells: E. coli K12 L507/pHP10D (NRRL B-18560)
Description: biochemical. The following applies: for IC50: read-out: Fluorescence Assay IC50 (converted). The format is biochemical. How it is done: C. Preparation of Protease Fraction
A culture of E. coli K12 L507/pHP10D was grown to mid-log phase at 32° C. in LB media containing 12.5 μg/ml tetracycline. The cultivation temperature was quickly elevated to 40° C. to induce gene expression, and the cells were allowed to grow for 2.5 hours at this temperature before the culture was quickly chilled on ice. The cells were centrifuged and the cell pellet was resuspended in 20 mL 50 mmol MES buffer (pH 6.0) containing 1 mmol EDTA, 1 mmol DTT, 1 mmol PMSF and 10% glycerol ("Buffer A"). Cells were lysed by sonication using a Fischer Model 300 Dismembrator and a microtip probe. Following centrifugation at 27,000×g, the supernatant was diluted to a total volume of 60 mL with Buffer A and loaded onto a 2.0×19 cm QAE-Sepharose column (1 mL/min, 4° C.), that had been equilibrated in Buffer A. The column was washed isocratically for 180 min and then eluted with a gradient eluent of 0-1.0M sodium chloride in Buffer A over 120 min. Enzymatic activity was measured by HPLC using the synthetic peptide SQNYPIV as described in Margolin et al., Biochem. Biophys. Res. Commun., 167, 554-560 (1990); the production of the p1 peptide (SQNY) was measured.
The active fractions were combined, made 1.2M in ammonium sulfate, and applied to a 2.0×18 cm hexyl agarose column that had been equilibrated in Buffer A containing 1.2M ammonium sulfate. The sample was loaded at a flow rate of 1 mL/min at 4° C., washed with the equilibration buffer for 240 min (1 mL/min) and then eluted using a reverse linear gradient of 1.2-0M ammonium sulfate in Buffer A for 120 min at the same flow rate. The column was then washed isocratically in Buffer A for 120 min.
The active fractions were combined, concentrated to 10 mL using an Amicon stirred cell with a YM-10 membrane and then applied to a MonoS cation exchange column (1.0×10 cm) that had been equilibrated in Buffer A. The sample was loaded at a flow rate of 1 mL/min at 25° C. After washing isocratically for 30 min, the protease was eluted using a linear gradient of 0-0.45M sodium chloride in Buffer A over 40 min. The column was washed isocratically in Buffer A containing 0.45M sodium chloride for 30 min.
The active fractions were combined and concentrated to 200 μL using an Amicon stirred cell and a YM-10 membrane and then the protease was applied to a Superose 6 size exclusion column equilibrated in Buffer A containing 0.1M sodium chloride.
The purified peptide was labeled with a fluorescent marker at the C-terminal end for use in the Pandex assay. N^α -Biotin-[…]OH SEQ ID NO:3. (1.206 g, 0.936 mmol) was dissolved in 100 mL of 0.1M sodium borate, pH 9.5. Then, a solution of 3 g (7.7 mmol) of fluorescein isothiocyanate in 15 mL dimethyl sulfoxide was added to the reaction mixture in 10 equal portions over two hours. The resulting mixture was allowed to react for one hour after the final addition. The solution was adjusted to pH 3 using 5N hydrochloric acid, resulting in the formation of a precipitate which was removed by centrifugation.
E. Fluorescence HIV-1 Protease Inhibitor Assay
The following buffers and solutions are used in the Fluorescence HIV-1 Protease Inhibitor Assay:
MES-ALB Buffer: 0.05M 4-morpholineethane
Avidin Coated 0.1% solution of Fluoricon
Beads Solution: Avidin Assay Particles
(Avidin conjugated to solid
polystyrene beads, 0.6-0.8
microns in diameter in TBSA
27 IU/mL of purified HIV-1
protease in MES-ALB buffer
(1 IU equals the amount of
enzyme required to hydrolyze
1 μmole of substrate per
To each well of a round bottom, 96-well plate is added 20 μL of the Enzyme Solution followed by 10 μL of the compound to be evaluated in a 20% aqueous dimethylsulfoxide solution. Purified HIV-1 protease was obtained as described above.

In brackets after ≈: the same amount, converted by molar mass. Where only a bound is given, the exact number is not on record here.

By IC30 is commonly meant the concentration at which the effect reaches the 30% level. The term IC50 denotes the midpoint of a concentration-inhibition curve.

For the molecule `CC(C)(C)NC(=O)c1ccccc1C[C@@H](O)[C@H](Cc1ccccc1)NC(=O)[C@H](CC(=O)OCc1ccccc1)NC(=O)OC(C)(C)C` [Example 31A, [2R-(2R*,3S*,6S*)]-N-t-Butyl-2-[2-hydroxy-3-phenylmethyl-4-aza-5-oxo-6-N(t-butoxycarbonyl)amino-7-benzyloxycarbonyl]heptyl benzamide], the IC8 (read-out: Fluorescence Assay IC8) was determined as 1 µg/mL.
On to `CC(C)(C)NC(=O)c1ccccc1C[C@@H](O)[C@H](Cc1ccccc1)NC(=O)[C@H](CC(=O)OCc1ccccc1)NS(C)(=O)=O` [Example 31C, [2R-(2R*,3S*,6S*)]-N-t-Butyl-2-[2-hydroxy-3-phenylmethyl-4-aza-5-oxo-6-N(methylsulfonyl)amino-7-benzyloxycarbonyl]heptyl benzamide], for which the IC30 (read-out: Fluorescence Assay IC30) is 1 µg/mL (≈ 1.6 µM).
Take `CC(=O)N[C@@H](CSCc1ccccc1)C(=O)N[C@@H](Cc1ccccc1)[C@H](O)Cc1ccccc1C(=O)NC(C)(C)C` [Example 32, [2R-(2R*,3S*,6R*)]-N-t-Butyl-2-[2-hydroxy-3-phenylmethyl-4-aza-5-oxo-6-N-(ethanoyl)amino-7-benzylthio]heptyl benzamide]: for the setting “read-out: Fluorescence Assay IC12”, the IC12 was found to be 1 µg/mL.
Take `CC(=O)N[C@H](CC(=O)OCc1ccccc1)C(=O)N[C@@H](Cc1ccccc1)[C@H](O)Cc1ccccc1C(=O)NC(C)(C)C` [Example 1C, [2R-(2R*, 3S*, 6R*)1-N-t-Butyl-2-[2-hydroxy-3-phenylmethyl-4-aza-5-oxo-6-N(ethanoyl)amino-7-benzyloxycarbonyl]heptylbenzamide]: the IC50 is 56.1 nM.
On the same count and under the same terms, under `CC(C)(C)NC(=O)c1ccccc1C[C@@H](O)[C@H](Cc1ccccc1)NC(=O)[C@H](CC(N)=O)NS(=O)(=O)c1cccc2cccnc12` [Example 30, [2R-(2R*,3S*,6S*)]-N-t-Butyl-2-[2-hydroxy-3-phenylmethyl-4-aza-5-oxo-6-N(quinolin-8-ylsulfonyl)amino-7-carbamoyl]heptyl benzamide] stands 18.6 nM; under `CC(=O)N[C@H](CSc1ccccc1)C(=O)N[C@@H](Cc1ccccc1)[C@H](O)Cc1ccccc1C(=O)NC(C)(C)C` (relative stereo) [Example 20A, [2R(2R*,3S*,6S*)]-N-t-Butyl-2-[2-hydroxy-3-phenylmethyl-4-aza-5-oxo-6-N(ethanoyl)amino-7-phenylthio]heptyl benzamide], 130 nM.
`CC(C)(C)NC(=O)c1ccccc1C[C@@H](O)[C@H](Cc1ccccc1)NC(=O)[C@@H](CSc1ccc(F)cc1)NC(=O)OC(C)(C)C` [Example 37A, [2R-(2R*,3S*,6S*)]-N-t-Butyl-2-[2-hydroxy-3-phenylmethyl-4-aza-5-oxo-6-N(t-butoxycarbonyl)amino-7-(p-fluorophenylthio)]heptyl benzamide]: the IC50 was above 1570 nM.
Regarding `Cn1nnnc1SC[C@@H](NS(C)(=O)=O)C(=O)N[C@@H](Cc1ccccc1)[C@H](O)Cc1ccccc1C(=O)NC(C)(C)C` [Example 39C, [2R-(2R*,3S*,6S*)]-N-t-Butyl-2-[2-hydroxy-3-phenylmethyl-4-aza-5-oxo-6-N(methylsulfonyl)amino-7-N-(methyl)tetrazolylthio)]heptyl benzamide], the IC50 was 14.6 nM.
As to `CC(C)(C)NC(=O)c1ccccc1C[C@@H](O)[C@H](Cc1ccccc1)NC(=O)[C@@H](CSCc1ccccc1)NC(=O)OC(C)(C)C` [Example 19A, [2R-(2R*, 3S*, 6S*)]-N-t-Butyl-2-[2-hydroxy-3-phenylmethyl-4-aza-5-oxo-6-N (t-butoxycarbonyl)amino-7-benzylthio]heptyl benzamide], the IC3 (read-out: Fluorescence Assay IC3) is 1 µg/mL.
Regarding `CC(C)(C)NC(=O)c1ccccc1C[C@@H](O)[C@H](Cc1ccccc1)NC(=O)[C@@H](C[S+]([O-])c1ccc(F)cc1)NS(C)(=O)=O` (stereo partly drawn) [Example 37D, [2R-(2R*,3S*,6S*)]-N-t-Butyl-2-[2-hydroxy-3-phenylmethyl-4-aza-5-oxo-6-N(methylsulfonyl)amino-7-(p-fluorophenylsulfinyl)]heptyl benzamide], the IC50 is 0.158 nM.
Same read-out and setting: under `CC(=O)N[C@H](CS(=O)(=O)Cc1ccccc1)C(=O)N[C@@H](Cc1ccccc1)[C@H](O)Cc1ccccc1C(=O)NC(C)(C)C` [Example 18B, [2R-(2R*, 3S*, 6S*)]-N-t-Butyl-2-[2-hydroxy-3-phenylmethyl-4-aza-5-oxo-6-N(ethanoyl)amino-7-benzylsulfonyl]heptyl benzamide] stands 55.9 nM; under `CC(=O)N[C@H](COCc1ccccc1)C(=O)N[C@@H](Cc1ccccc1)[C@H](O)Cc1ccccc1C(=O)NC(C)(C)C` [Example 13C, [2R-(2R*, 3S*, 6R*)]-N-t-Butyl-2-[2-hydroxy-3-phenylmethyl-4-aza-5-oxo-6-N(ethanoyl)amino-7-benzyloxy]heptyl benzamide], 230 nM; under `CC(C)(C)NC(=O)c1ccccc1C[C@@H](O)[C@H](Cc1ccccc1)NC(=O)[C@@H](CSc1ccc2ccccc2c1)NC(=O)OC(C)(C)C` [Example 15A, [2R-(2R*,3S*,6S*)]-N-t-Butyl-2-[2-hydroxy-3-phenylmethyl-4-aza-5-oxo-6-N(t-butoxycarbonyl)amino-7-naphth-2-ylthio]heptyl benzamide], above 1490 nM.
Consider `CCC(=O)N[C@H](CC(=O)OCc1ccccc1)C(=O)N[C@@H](Cc1ccccc1)[C@H](O)Cc1ccccc1C(=O)NC(C)(C)C` [Example 6, [2R-(2R*,3S*,6R*)]-N-t-butyl-2-[2-hydroxy-3-phenylmethyl-4-aza-5-oxo-6-N(propanoyl)amino-7-benzyloxycarbonyl]heptyl benzamide], for which the IC50 is 26.6 nM.
With `CC(=O)N[C@H](CSc1ccc2ccccc2n1)C(=O)N[C@@H](Cc1ccccc1)[C@H](O)Cc1ccccc1C(=O)NC(C)(C)C` [Example 24A, [2R-(2R*,3S*,6S*)]-N-t-Butyl-2-[2-hydroxy-3-phenylmethyl-4-aza-5-oxo-6-N(ethanoyl)amino-7-quinolin-2-ylthio]heptyl benzamide], the IC50 is 3.75 nM.
As for `CC(C)(C)NC(=O)c1ccccc1C[C@@H](O)[C@H](Cc1ccccc1)NC(=O)[C@H](CC(N)=O)NS(=O)(=O)c1ccccn1` [Example 29C, [2R-(2R*,3S*,6S*)]-N-t-Butyl-2-[2-hydroxy-3-phenylmethyl-4-aza-5-oxo-6-N(pyrid-2-ylsulfonyl)amino-7-carbamoyl]heptyl benzamide], the IC50 is 371 nM.
`CC(C)(C)NC(=O)c1ccccc1C[C@@H](O)[C@H](Cc1ccccc1)NC(=O)[C@@H](CSc1ccc2ccccc2c1)NS(C)(=O)=O` [Example 17A, [2R-(2R*, 3S*, 6S*)]-N-t-Butyl-2-[2-hydroxy-3-phenylmethyl-4-aza-5-oxo-6-N (methylsulfonyl)amine-7-naphth-2-ylthio]heptyl benzamide]: the IC50 is 1.1 nM.
For `CC(C)(C)NC(=O)c1ccccc1C[C@@H](O)[C@H](Cc1ccccc1)NC(=O)[C@@H](CS(=O)(=O)c1ccc2ccccc2c1)NS(C)(=O)=O` [Example 17B, [2R-(2R*,3S*,6S*)]-N-t-Butyl-2-[2-hydroxy-3-phenylmethyl-4-aza-5-oxo-6-N(methylsulfonyl)amino-7-naphth-2-ylsulfonyl]heptyl benzamide], the IC50 is 0.191 nM.
`CC(=O)N[C@H](CS(=O)(=O)c1ccccc1)C(=O)N[C@@H](Cc1ccccc1)[C@H](O)Cc1ccccc1C(=O)NC(C)(C)C` [Example 20C, [2R-(2R*,3S*,6S*)]-N-t-Butyl-2-[2-hydroxy-3-phenylmethyl-4-aza-5-oxo-6-N(ethanoyl)amino-7-phenylsulfonyl]heptyl benzamide]: the IC50 is 4.88 nM.

These data come from patent US5554653A, “Inhibitors of HIV protease useful for the treatment of AIDS” (Eli Lilly and Company, priority 1992, dated 1996).
